# Assay results published in PMC5244392, “Interspecies cathelicidin comparison reveals divergence in antimicrobial activity, TLR modulation, chemokine induction and regulation of phagocytosis” (Scientific Reports, 2017).
# Tests used:
# [1] = tested on: LPS-induced TLR-4 activation of RAW264.7 cells; test: LPS neutralization: LPS-induced TNFα release; type: cell-based, murine; conditions: peptide 0.08-20 μM; for LPS neutralization / inhibition of LPS-induced activation, in words: 100 ng/ml LPS, 2 h, TNFα; for Summary class, TLR activation LPS: 100 ng/ml LPS E. coli O111:B4, TNFα after 2 h, − = no significant effect, N = 3
# Description: TLR ligands: LPS Escherichia coli (E. coli) O111:B4 (TLR-4), LTA S. aureus (TLR-2), and ODN-1826 (TLR-9) were obtained from Invivogen (Toulouse, France). Chicken CATH-2 (chCATH-2) and PMAP-36 were synthesized by Fmoc-chemistry at China Peptides (CPC scientific, Sunnycale, CA) and all other cathelicidins were synthesized by Fmoc-chemistry at the Academic Centre for Dentistry Amsterdam (Amsterdam, The Netherlands) (Table 1). Purity of all peptides was >95% as analyzed by HPLC-MS.
# RAW264.7 cells were stimulated with 100 ng/ml LPS E. coli O111:B4, 1 μg/ml LTA S. aureus or 2.5 nM ODN-1826 in the presence of various concentrations of different cathelicidins. TNFα release was determined after 2 h for LPS and LTA stimulation and 24 h for ODN-1826 stimulation. CXCL10, CCL5 and IL-10 release were all determined after 24 h stimulation. As a control, RAW264.7 cells were stimulated for 2 h with 10^6 CFU/ml live or heat-killed (70 °C, 0.5 h) E. coli O78, followed by a double wash with cell culture medium and subsequent 22 h incubation in cell culture medium supplemented with 250 μg/ml gentamicin.
# ELISA Duoset kits for mouse TNFα, CCL5, CXCL10 and IL-10 were obtained from R&D systems (Minneapolis, MN, USA) and ELISAs were performed according to the manufacturer’s protocol. Samples were stored at −20 °C until analysis and, if needed, diluted in 1% BSA in PBS, pH 7.4. Absorbance at 450 nm was determined in a FLUOstar Omega microplate reader (BMG Labtech GmbH) and corrected for absorbance at 570 nm. Results were analyzed with MARS data analysis software (BMG Labtech GmbH).
# RAW264.7 cells were stimulated for 2 h with 100 ng/ml LPS from E. coli O111:B4 in the presence of different cathelicidins at various concentrations to study the capability of LPS neutralization (Fig. 3A). […] Next, RAW264.7 cells were stimulated with 1 μg/ml S. aureus LTA for 2 h in the presence of various cathelicidin concentrations, to test LTA neutralization (Fig. 3B).
# Figure 3 Effects of cathelicidins on TLR-2, -4, and -9 activation. LPS (100 ng/ml) (A), LTA (1 μg/ml) (B) or ODN-1826 (2.5 nM) (C) was mixed with different cathelicidins (0.08 μM, 0.31 μM, 1.25 μM, 5 μM, and 20 μM) before addition to the RAW264.7 cells. Supernatants were collected after 2 hours (A,B) or 24 hours (C) incubation and TNFα expression was measured. The dotted line represents the average cytokine release of control samples. Results are presented as average +/− SEM (N = 3). Statistical differences were determined by Two-way ANOVA with Bonferroni post-hoc test.
# [2] = tested on: RAW264.7 cells; test: Phagocytosis assay with fluorescent latex beads; type: cell-based, murine; conditions: 30 min; for Summary class, phagocytosis / Effect on bead uptake (phagocytosis), in words: latex beads 10 per cell; for Summary class, phagocytosis: 37 °C, MFI corrected for 0 °C, peptide 0.31-5 μM, − = no significant effect, N = 3; for Effect on bead uptake (phagocytosis), in words: peptide 0.31, 1.25 and 5 μM
# Method: Red fluorescent (λex 575 nm and λem 610 nm) carboxylate-modified polystyrene latex beads (0.5 μm; Sigma Aldrich, St. Louis, MO, USA) were washed three times with PBS and resuspended in culture medium. Peptide dilutions were prepared in culture medium and added to RAW264.7 cells, directly followed by the latex beads (ratio 10 beads to 1 cell). Cells were incubated for 30 minutes at 37 °C, 5% CO2 (energy-dependent uptake) or 0 °C (non-specific adherence), after which cells were washed extensively with ice-cold PBS supplemented with 1% FCS and 0.01% NaN3, to remove all free beads. After washing, cells were scraped and resuspended in FACS buffer (PBS supplemented with 0.5% BSA). Samples were measured with the BD FACSCanto II flow cytometer (BD Biosciences, San Jose, CA, USA) and analyzed with FlowJo software (Ashland, OR, USA). Mean fluorescence intensity (MFI), corrected for non-specific adherence, was used as an indicator for the number of beads taken up.
# While the above-described functions of cathelicidins are well-known, relatively little is known about the influence of cathelicidins on phagocytosis. Therefore, RAW264.7 cells were incubated with fluorescent beads to study the effect of cathelicidins on phagocytosis. The uptake was corrected for fluorescence measured after incubation on ice instead of 37 °C, which inhibits the active process of phagocytosis. After 30 minutes, 90% of the RAW264.7 cells took up latex beads (Fig. 4A). Histograms exemplify changes in bead phagocytosis with different concentrations of K9CATH (Fig. 4B), eCATH-2 (Fig. 4C) and chCATH-3 (Fig. 4D). Effect of all cathelicidins are depicted by the average mean fluorescence intensity (MFI) in Fig. 4E.
# Figure 4 Effects of cathelicidins on phagocytosis by RAW264.7 cells. RAW264.7 cells were incubated with cathelicidins (0.31 μM, 1.25 μM, and 5 μM) and red fluorescent latex beads (10 beads to 1 cell) at 37 °C (energy dependent uptake) or on ice (non-specific adherence) for 30 minutes. Histograms show control (no peptide present) bead uptake at 37 °C (gray, filled) and 0 °C (black line) (A), or uptake in presence of different concentrations of indicated cathelicidins (B–D); 0 μM (red, filled), 0.31 μM (black line), 1.25 μM (green line) or 5 μM (blue line). Uptake was quantified by determining the MFI after correction for 0 °C control (E). Results are presented as average +/− SEM (N = 3). Statistical differences were determined by Two-way ANOVA with Bonferroni post-hoc test.
Substance,"LPS neutralization / inhibition of LPS-induced activation, in words [1]","Summary class, phagocytosis [2]","Effect on bead uptake (phagocytosis), in words [2]","Summary class, TLR activation LPS [1]","Increase of bead uptake ([2]; latex beads, not significant)"
"RIIDLLWRVRRPQKPKFVTVWVR [PMAP-23, porcine α-helical cathelicidin, 23 residues, charge +6]",None of the equine cathelicidins nor PMAP-23 and PR-39 were capable to neutralize LPS,↓↓ (↓↓ = significant decrease ≤5 μM),reduced bead-uptake in a dose-dependent manner,–,–
"Ac-GRFRRLRKKTRKRLKKIGKVLKWIPPIVGSIPLGCG [PMAP-36, porcine α-helical cathelicidin, N-acetylated, 36 residues, charge +13]",–,↓↓ (↓↓ = significant decrease ≤5 μM),only reduced phagocytosis at 5 μM,↓↓ (↓↓ = significant decrease ≤5 μM),–
"RFGRFLRKIRRFRPKVTITIQGSARF-NH2 [chCATH-2, chicken CATH-2, C-terminal amide, 26 residues, charge +9]",potently inhibited,↓↓ (↓↓ = significant decrease ≤5 μM),reduced bead-uptake in a dose-dependent manner,↓↓ (↓↓ = significant decrease ≤5 μM),–
"KRRHWFPLSFQEFLEQLRRFRDQLPFP [eCATH-2, equine CATH-2, 27 residues, charge +4]",–,–,–,–,~50%
"RLKELITTGGQKIGEKIRRIGQRIKDFFKNLQPREEKS [Peptide K9CATH, dog cathelicidin, 38 residues, charge +6]",significantly inhibited,↓↓ (↓↓ = significant decrease ≤5 μM),reduced bead-uptake in a dose-dependent manner,↓↓ (↓↓ = significant decrease ≤5 μM),–
"RRRPRPPYLPRPRPPPFFPPRLPPRIPPGFPPRFPPRFP [PR-39, porcine proline-rich cathelicidin forming a polyproline helix, 39 residues, charge +10]",None of the equine cathelicidins nor PMAP-23 and PR-39 were capable to neutralize LPS,–,did not affect bead uptake,–,–
"RVKRFWPLVPVAINTVAAGINLYKAIRRK [chCATH-3, chicken CATH-3, 29 residues, charge +7]",significantly inhibited,–,did not affect bead uptake,↓↓ (↓↓ = significant decrease ≤5 μM),–
"GLLRKGGEKIGEKLKKIGQKIKNFFQKLVPQPEQ [CRAMP, murine cathelicidin, 34 residues, charge +6]",–,↓↓ (↓↓ = significant decrease ≤5 μM),reduced bead-uptake in a dose-dependent manner,↓↓ (↓↓ = significant decrease ≤5 μM),–
